Source: US20240158418A1 (C4 Therapeutics, Inc., priority 2021, published 2024)

Columns and labels:
Format in all cases: cell-based
EGFR L858R-T790M-C797S = target: T1, EGFR L858R-T790M-C797S (Homo sapiens, UniProt P00533, C797S/L858R/T790M); assay: EGFR degradation, Total EGFR (L858R-specific) HTRF, NCI-H1975+CS; conditions: Table 9B; NCI-H1975 C797S clone, 6 hours, Total EGFR HTRF; read-out: H1975 C797S clone EGFR DC50
T1 construct: generated using CRISPR technology to introduce the additional C797S mutation by Horizon Discovery; host or cells: NCI-H1975+CS (CRISPR knock-in of C797S)
T1 sequence (P00533 25-1210 T790M/C797S/L858R): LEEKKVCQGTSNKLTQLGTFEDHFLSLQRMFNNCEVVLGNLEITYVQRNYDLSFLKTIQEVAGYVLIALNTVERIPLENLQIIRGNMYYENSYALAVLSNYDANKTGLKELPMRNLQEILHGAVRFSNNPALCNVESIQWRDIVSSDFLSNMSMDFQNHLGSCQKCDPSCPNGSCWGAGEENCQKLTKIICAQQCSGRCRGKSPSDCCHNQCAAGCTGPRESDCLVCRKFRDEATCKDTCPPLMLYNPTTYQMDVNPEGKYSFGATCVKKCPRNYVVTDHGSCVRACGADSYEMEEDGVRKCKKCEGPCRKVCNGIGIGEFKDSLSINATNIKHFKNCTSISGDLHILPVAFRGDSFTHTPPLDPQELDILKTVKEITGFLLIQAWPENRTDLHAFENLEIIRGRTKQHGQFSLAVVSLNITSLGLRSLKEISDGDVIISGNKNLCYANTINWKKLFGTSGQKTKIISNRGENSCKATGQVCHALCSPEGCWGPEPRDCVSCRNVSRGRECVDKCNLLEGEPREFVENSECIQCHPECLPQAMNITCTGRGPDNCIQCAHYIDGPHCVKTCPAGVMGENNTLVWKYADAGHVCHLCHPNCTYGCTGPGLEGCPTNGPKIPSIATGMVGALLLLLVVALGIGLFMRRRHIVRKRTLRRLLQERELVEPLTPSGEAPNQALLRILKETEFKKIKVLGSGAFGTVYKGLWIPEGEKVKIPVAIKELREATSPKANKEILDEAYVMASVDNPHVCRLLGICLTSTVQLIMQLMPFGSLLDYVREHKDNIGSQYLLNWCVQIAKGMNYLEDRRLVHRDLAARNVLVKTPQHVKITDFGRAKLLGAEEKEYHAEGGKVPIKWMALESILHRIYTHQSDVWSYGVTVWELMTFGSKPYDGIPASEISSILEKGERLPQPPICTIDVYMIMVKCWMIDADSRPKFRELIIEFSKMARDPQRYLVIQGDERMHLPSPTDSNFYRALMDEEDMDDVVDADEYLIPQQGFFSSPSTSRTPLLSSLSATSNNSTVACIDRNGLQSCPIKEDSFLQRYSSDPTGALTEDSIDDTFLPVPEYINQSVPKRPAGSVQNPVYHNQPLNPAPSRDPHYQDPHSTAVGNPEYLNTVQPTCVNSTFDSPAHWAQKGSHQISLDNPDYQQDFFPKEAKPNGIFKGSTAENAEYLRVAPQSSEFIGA
Source text: (§1) NCI-H1975 (harboring EGFR heterozygous L858R-T790M mutations) and NCI-H3255 (harboring EGFR heterozygous L858R mutation) were purchased from ATCC and NCI, respectively. NCI-H1975+CS (harboring EGFR heterozygous L858R-T790M-C797S mutations) was generated using CRISPR technology to introduce the additional C797S mutation by Horizon Discovery. A431 (harboring EGFR wildtype) was purchased from ATCC. RPMI 1640 no-phenol red medium and fetal bovine serum (FBS) were purchased from Gibco (Grand Island, NY, USA). Cell culture flasks and 384-well microplates were acquired from VWR (Radnor, PA, USA). Phosphorylated (pY1068) EGFR and Total EGFR (using L858R-specific detection antibody and pan-EGFR antibody for EGFR mutant cell lines and EGFR wild-type cell lines, respectively) HTRF assay kits were purchased from Cisbio (Bedford, MA, USA).
(§2) Degradation of EGFR protein containing L858R mutation or wild-type was determined based on quantification of FRET signal using a Total EGFR (L858R-specific or pan-EGFR detecting) HTRF assay kit. Phospho-EGFR (pEGFR) inhibition was determined based on quantification of FRET signal using a pY1068 EGFR HTRF assay kit. In separate assay plates, test compounds were added to the 384-well plate from a top concentration of 10 μM with 11 points, half log titration in duplicates. For each assay, 12.5 uL of cells suspended in assay media (RPMI 1640 no-phenol red medium+10% FBS) at cell densities indicated for each cell line in Table 8 below were dispensed using a multi-channel pipette to 384-well low volume white HTRF microplates containing a duplicate concentration range of test compounds and DMSO controls. The plates were kept at 37° C. with 5% CO2 for 6 hours and then incubated with either phospho EGFR or Total EGFR HTRF detection antibodies according to the cell line and EGFR mutant being assayed. Cells treated in the absence of the test compound were the negative control. Positive control was set by wells containing all reagents but no cells. FRET signal was acquired on EnVision™ Multilabel Reader (PerkinElmer, Santa Clara, CA, USA). Compound concentration that achieves 50% degradation and inhibition was reported as DC50 and IC50, respectively.

EGFR L858R-T790M = target: T2, EGFR L858R-T790M (Homo sapiens, UniProt P00533, L858R/T790M); assay: EGFR degradation, Total EGFR (L858R-specific) HTRF, NCI-H1975; conditions: Table 9B; NCI-H1975 cells, 6 hours, Total EGFR HTRF; read-out: H1975 EGFR DC50
T2 construct: NCI-H1975 (harboring EGFR heterozygous L858R-T790M mutations); host or cells: NCI-H1975
T2 sequence (P00533 25-1210 T790M/L858R): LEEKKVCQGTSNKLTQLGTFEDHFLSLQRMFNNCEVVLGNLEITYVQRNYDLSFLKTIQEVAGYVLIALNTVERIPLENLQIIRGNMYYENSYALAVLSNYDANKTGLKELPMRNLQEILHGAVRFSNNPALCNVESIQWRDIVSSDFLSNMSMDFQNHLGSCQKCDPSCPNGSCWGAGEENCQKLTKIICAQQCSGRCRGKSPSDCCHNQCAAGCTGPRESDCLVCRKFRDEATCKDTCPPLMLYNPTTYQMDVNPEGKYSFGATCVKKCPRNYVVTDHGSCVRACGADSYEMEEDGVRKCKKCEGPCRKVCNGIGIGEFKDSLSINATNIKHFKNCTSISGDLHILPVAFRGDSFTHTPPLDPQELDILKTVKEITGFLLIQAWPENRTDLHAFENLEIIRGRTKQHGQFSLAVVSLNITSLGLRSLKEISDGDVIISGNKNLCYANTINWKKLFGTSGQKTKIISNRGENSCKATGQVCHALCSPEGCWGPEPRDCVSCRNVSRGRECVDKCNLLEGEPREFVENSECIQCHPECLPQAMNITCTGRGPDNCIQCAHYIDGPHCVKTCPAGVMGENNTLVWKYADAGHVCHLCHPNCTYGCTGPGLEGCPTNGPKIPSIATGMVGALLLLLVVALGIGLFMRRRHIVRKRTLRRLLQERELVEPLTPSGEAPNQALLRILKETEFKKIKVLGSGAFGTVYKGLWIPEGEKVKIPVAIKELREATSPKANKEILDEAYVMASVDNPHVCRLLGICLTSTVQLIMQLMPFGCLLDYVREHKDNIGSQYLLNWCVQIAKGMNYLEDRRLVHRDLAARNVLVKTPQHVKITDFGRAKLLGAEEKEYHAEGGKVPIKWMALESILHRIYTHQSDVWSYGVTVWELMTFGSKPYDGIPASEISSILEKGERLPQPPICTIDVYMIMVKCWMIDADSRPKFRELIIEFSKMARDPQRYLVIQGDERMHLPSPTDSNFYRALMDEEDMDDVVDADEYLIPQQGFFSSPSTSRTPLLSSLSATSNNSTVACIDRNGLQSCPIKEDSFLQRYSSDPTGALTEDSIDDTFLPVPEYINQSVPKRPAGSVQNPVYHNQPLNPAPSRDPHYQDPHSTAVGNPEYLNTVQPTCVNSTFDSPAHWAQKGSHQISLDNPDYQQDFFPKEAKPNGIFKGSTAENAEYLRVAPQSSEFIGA
Procedure, shortened: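 HTRF read-outs: pY1068 phospho-EGFR for IC50; total EGFR (pan-EGFR in A431, L858R-specific in mutant lines) for DC50. Compounds were titrated 11 points, half-log, from 10 μM in duplicate onto cells in 10% FBS RPMI, incubated 6 h at 37°C.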

EGFR L858R = EGFR L858R (Homo sapiens, UniProt P00533, L858R); assay: EGFR degradation, Total EGFR (L858R-specific) HTRF, NCI-H3255; set-up: NCI-H3255 (harboring EGFR heterozygous L858R mutation); host or cells: NCI-H3255; conditions: Table 9B; NCI-H3255 cells, 6 hours, Total EGFR HTRF; read-out: H3255 EGFR DC50
EGFR L858R, sequence (P00533 25-1210 L858R): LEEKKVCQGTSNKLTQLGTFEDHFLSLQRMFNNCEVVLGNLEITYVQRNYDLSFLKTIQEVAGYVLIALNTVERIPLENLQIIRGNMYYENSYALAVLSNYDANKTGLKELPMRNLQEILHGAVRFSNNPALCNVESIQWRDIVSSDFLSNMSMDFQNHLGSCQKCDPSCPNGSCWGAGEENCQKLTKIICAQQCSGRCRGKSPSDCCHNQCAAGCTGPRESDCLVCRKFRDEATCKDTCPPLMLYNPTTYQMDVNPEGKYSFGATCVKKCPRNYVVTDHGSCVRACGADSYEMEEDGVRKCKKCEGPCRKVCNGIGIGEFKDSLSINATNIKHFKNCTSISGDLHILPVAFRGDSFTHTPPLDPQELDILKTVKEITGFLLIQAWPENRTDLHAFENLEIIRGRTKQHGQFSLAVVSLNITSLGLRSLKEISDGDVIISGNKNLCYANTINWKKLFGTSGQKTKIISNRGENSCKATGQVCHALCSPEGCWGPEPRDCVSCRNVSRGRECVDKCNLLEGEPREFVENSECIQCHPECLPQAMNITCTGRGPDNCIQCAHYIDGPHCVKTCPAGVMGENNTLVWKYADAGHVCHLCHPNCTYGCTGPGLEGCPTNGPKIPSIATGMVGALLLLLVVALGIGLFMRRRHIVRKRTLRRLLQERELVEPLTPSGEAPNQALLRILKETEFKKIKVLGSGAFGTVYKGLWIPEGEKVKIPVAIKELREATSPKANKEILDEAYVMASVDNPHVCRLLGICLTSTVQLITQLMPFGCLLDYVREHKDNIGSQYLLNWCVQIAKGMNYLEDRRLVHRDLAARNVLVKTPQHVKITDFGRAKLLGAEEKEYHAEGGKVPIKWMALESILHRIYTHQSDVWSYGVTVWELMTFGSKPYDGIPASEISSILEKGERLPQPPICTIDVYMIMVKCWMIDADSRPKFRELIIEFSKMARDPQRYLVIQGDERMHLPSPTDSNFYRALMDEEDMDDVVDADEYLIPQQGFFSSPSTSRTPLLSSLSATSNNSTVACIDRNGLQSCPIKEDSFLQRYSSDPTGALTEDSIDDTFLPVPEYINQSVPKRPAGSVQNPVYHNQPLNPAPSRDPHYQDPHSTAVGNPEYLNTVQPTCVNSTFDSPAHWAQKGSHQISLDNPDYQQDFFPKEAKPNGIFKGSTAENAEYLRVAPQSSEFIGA
Source text: as §1, §2

Row | SMILES | DC50 (EGFR L858R-T790M-C797S) [µM] | DC50 (EGFR L858R-T790M) [µM] | DC50 (EGFR L858R) [µM]
1 | O=C1CC[C@H](Nc2ccc(C3CCN(CC(=O)N4CC5(C4)CN(c4ccc(-c6ccc7cn(C(C(=O)Nc8nccs8)c8ncn9c8CCC9)nc7c6F)cn4)C5)CC3)c(F)c2)C(=O)N1 (stereo partly drawn) [Compound 69, 2-(6,7-dihydro-5H-pyrrolo[1,2-c]imidazol-1-yl)-2-[6-[6-[2-[2-[4-[4-[[(3S)-2,6-dioxo-3-piperidyl]amino]-2-fluoro-phenyl]-1-piperidyl]acetyl]-2,6-diazaspiro[3.3]heptan-6-yl]-3-pyridyl]-7-fluoro-indazol-2-yl]-N-thiazol-2-yl-acetamide] | < 0.05 | < 0.05 | 
2 | Cn1nc(N2CCC(=O)NC2=O)c2ccc(C3CCN(CC(=O)N4CC5(C4)CN(c4ccc(-c6ccc7cn(C(C(=O)Nc8nccs8)c8ncn9c8CCC9)nc7c6F)cn4)C5)CC3(F)F)cc21 (stereo not drawn) [Compound 70, 2-(6,7-dihydro-5H-pyrrolo[1,2-c]imidazol-1-yl)-2-[6-[6-[2-[2-[4-[3-(2,4-dioxohexahydropyrimidin-1-yl)-1-methyl-indazol-6-yl]-3,3-difluoro-1-piperidyl]acetyl]-2,6-diazaspiro[3.3]heptan-6-yl]-3-pyridyl]-7-fluoro-indazol-2-yl]-N-thiazol-2-yl-acetamide] | < 0.05 | < 0.05 | 
3 | Cn1nc(N2CCC(=O)NC2=O)c2ccc(C3CCN(CC(=O)N4CC5(C4)CN(c4ccc(-c6cc(F)c7c(c6)C(=O)N(C(C(=O)Nc6nccs6)c6ncn8c6CCC8)C7)cn4)C5)CC3(F)F)cc21 (stereo not drawn) [Compound 87, 2-(6,7-dihydro-5H-pyrrolo[1,2-c]imidazol-1-yl)-2-(6-(6-(6-(2-(4-(3-(2,4-dioxotetrahydropyrimidin-1(2H)-yl)-1-methyl-1H-indazol-6-yl)-3,3-difluoropiperidin-1-yl)acetyl)-2,6-diazaspiro[3.3]heptan-2-yl)pyridin-3-yl)-4-fluoro-1-oxoisoindolin-2-yl)-N-(thiazol-2-yl)acetamide] | < 0.05 | < 0.05 | 
4 | Cn1nc(N2CCC(=O)NC2=O)c2ccc(C3CCN(CC(=O)N4CCC(NC(=O)c5ccc(C#Cc6cc(F)c7c(c6)C(=O)N(C(C(=O)Nc6nccs6)c6ncn8c6CCC8)C7)cn5)CC4)CC3(F)F)cc21 (stereo not drawn) [Compound 88, 5-[2-[2-[1-(6,7-dihydro-5H-pyrrolo[1,2-c]imidazol-1-yl)-2-oxo-2-(thiazol-2-ylamino)ethyl]-7-fluoro-3-oxo-isoindolin-5-yl]ethynyl]-N-[1-[2-[4-[3-(2,4-dioxohexahydropyrimidin-1-yl)-1-methyl-indazol-6-yl]-3,3-difluoro-1-piperidyl]acetyl]-4-piperidyl]pyridine-2-carboxamide] | < 0.05 | < 0.05 | 
5 | Cn1nc(N2CCC(=O)NC2=O)c2ccc(C3CCN(CC(=O)N4CCCN(c5ccc(-c6cc(F)c7c(c6)C(=O)N(C(C(=O)Nc6nccs6)c6ncn8c6CCC8)C7)cc5)CC4)CC3(F)F)cc21 (stereo not drawn) [Compound 91, 2-(6,7-dihydro-5H-pyrrolo[1,2-c]imidazol-1-yl)-2-(6-(4-(4-(2-(4-(3-(2,4-dioxotetrahydropyrimidin-1(2H)-yl)-1-methyl-1H-indazol-6-yl)-3,3-difluoropiperidin-1-yl)acetyl)-1,4-diazepan-1-yl)phenyl)-4-fluoro-1-oxoisoindolin-2-yl)-N-(thiazol-2-yl)acetamide] | 0.05 to 0.15 | < 0.05 | 
6 | Cn1nc(N2CCC(=O)NC2=O)c2ccc(N3CCN(CC(=O)N4CCN(c5ccc(-c6cc(F)c7c(c6)C(=O)N(C(C(=O)Nc6nccs6)c6ncn8c6CCC8)C7)cc5)CC4)CC3)cc21 (stereo not drawn) [Compound 92, 2-(6,7-dihydro-5H-pyrrolo[1,2-c]imidazol-1-yl)-2-(6-(4-(4-(2-(4-(3-(2,4-dioxotetrahydropyrimidin-1(2H)-yl)-1-methyl-1H-indazol-6-yl)piperazin-1-yl)acetyl)piperazin-1-yl)phenyl)-4-fluoro-1-oxoisoindolin-2-yl)-N-(thiazol-2-yl)acetamide] | < 0.05 | < 0.05 | 
7 | O=C1CCN(c2ccc(N3CCC(O)(CC(=O)N4CC5(C4)CN(c4ccc(-c6cc(F)c7cn(C(C(=O)Nc8nccs8)c8ncn9c8CCC9)nc7c6)cc4)C5)CC3)c(F)c2)C(=O)N1 (stereo not drawn) [Compound 147] | < 0.05 |  | 
8 | C[C@@H]1CC(O)(CC(=O)N2CC3(C2)CN(c2ccc(-c4cc(F)c5cn(C(C(=O)Nc6nccs6)c6ncn7c6CCC7)nc5c4)cc2)C3)C[C@H](C)N1c1ccc(NC2CCC(=O)NC2=O)cc1F (stereo partly drawn) [Compound 148, 2-(6,7-dihydro-5H-pyrrolo[1,2-c]imidazol-1-yl)-2-[6-[4-[2-[2-[(2s,6r)-1-[4-[(2,6-dioxo-3-piperidyl)amino]-2-fluoro-phenyl]-4-hydroxy-2,6-dimethyl-4-piperidyl]acetyl]-2,6-diazaspiro[3.3]heptan-6-yl]phenyl]-4-fluoro-indazol-2-yl]-N-thiazol-2-yl-acetamide] | < 0.05 |  | 

The remaining lines, values ahead:

Row | DC50 (EGFR L858R-T790M-C797S) [µM] | DC50 (EGFR L858R-T790M) [µM] | DC50 (EGFR L858R) [µM] | SMILES
9 | < 0.05 |  |  | O=C1CC[C@H](Nc2ccc(C3CCN(C(=O)CC4(O)CCN(c5ccc(-c6ccc7cn(C(C(=O)Nc8nccs8)c8ncn9c8CCC9)nc7c6F)cc5)CC4)CC3)c(F)c2)C(=O)N1 (stereo partly drawn) [Compound 149, 2-(6,7-dihydro-5H-pyrrolo[1,2-c]imidazol-1-yl)-2-[6-[4-[4-[2-[4-[4-[[(3S)-2,6-dioxo-3-piperidyl]amino]-2-fluoro-phenyl]-1-piperidyl]-2-oxo-ethyl]-4-hydroxy-1-piperidyl]phenyl]-7-fluoro-indazol-2-yl]-N-thiazol-2-yl-acetamide]
10 | < 0.05 |  |  | O=C1CC[C@H](Nc2ccc(C3CCN(C(=O)CC4(O)CCN(c5ccc(-c6cc(F)c7cn(C(C(=O)Nc8nccs8)c8ncn9c8CCC9)nc7c6)cn5)CC4)CC3)c(F)c2)C(=O)N1 (stereo partly drawn) [Compound 150, 2-(6,7-dihydro-5H-pyrrolo[1,2-c]imidazol-1-yl)-2-[6-[6-[4-[2-[4-[4-[[(3S)-2,6-dioxo-3-piperidyl]amino]-2-fluoro-phenyl]-1-piperidyl]-2-oxo-ethyl]-4-hydroxy-1-piperidyl]-3-pyridyl]-4-fluoro-indazol-2-yl]-N-thiazol-2-yl-acetamide]
11 | < 0.05 |  |  | O=C1CC[C@H](Nc2ccc(C3CCN(C(=O)CC4(O)CCN(c5ccc(-c6ccc7cn(C(C(=O)Nc8nccs8)c8ncn9c8CCC9)nc7c6F)cn5)CC4)CC3)c(F)c2)C(=O)N1 (stereo partly drawn) [Compound 151, 2-(6,7-dihydro-5H-pyrrolo[1,2-c]imidazol-1-yl)-2-[6-[6-[4-[2-[4-[4-[[(3S)-2,6-dioxo-3-piperidyl]amino]-2-fluoro-phenyl]-1-piperidyl]-2-oxo-ethyl]-4-hydroxy-1-piperidyl]-3-pyridyl]-7-fluoro-indazol-2-yl]-N-thiazol-2-yl-acetamide]
12 |  | < 0.05 | < 0.05 | O=C1CCC(Nc2ccc(C3CCN(CC(=O)N4CCN(c5ccc(-c6cc(F)c7c(c6)C(=O)N(C(C(=O)Nc6nccs6)c6ncn8c6CCC8)C7)cc5)CC4)CC3)nc2)C(=O)N1 (stereo not drawn) [Compound 179, 2-(6,7-dihydro-5H-pyrrolo[1,2-c]imidazol-1-yl)-2-[6-[4-[4-[2-[4-[5-[(2,6-dioxo-3-piperidyl)amino]-2-pyridyl]-1-piperidyl]acetyl]piperazin-1-yl]phenyl]-4-fluoro-1-oxo-isoindolin-2-yl]-N-thiazol-2-yl-acetamide]
13 |  | < 0.05 | < 0.05 | O=C1CCC(Nc2ccc(C3CCN(CC(=O)N4CCN(c5ccc(-c6cc(F)c7c(c6)C(=O)N(C(C(=O)Nc6nccs6)c6ncn8c6CCC8)C7)cc5)CC4)CC3)c(F)c2)C(=O)N1 (stereo not drawn) [Compound 180, 2-(6,7-dihydro-5H-pyrrolo[1,2-c]imidazol-1-yl)-2-[6-[4-[4-[2-[4-[4-[(2,6-dioxo-3-piperidyl)amino]-2-fluoro-phenyl]-1-piperidyl]acetyl]piperazin-1-yl]phenyl]-4-fluoro-1-oxo-isoindolin-2-yl]-N-thiazol-2-yl-acetamide]
